From patent US20110098323A1, “INHIBITORS OF BACTERIAL BIOFILM FORMATION” (MICROBIOTIX, INC., priority 2009, published 2011)
Like-named read-outs stand apart in the source and are kept apart here.

Legend:
Test in all cases: MBIC/MIC secondary assay
S. aureus ATCC 35556 = type: cell-based, Staphylococcus aureus; conditions: for MIC: Staphylococcus aureus, ATCC35556
[1] = test system: Pseudomonas aeruginosa PAO1; type: cell-based; conditions: for MIC: Pseudomonas aeruginosa, PAO1
Experimental: (§1) Assays for detecting and measuring bacterial biofilm formation are known in the art. An example of a biofilm formation assay useful in detecting and characterizing biofilm inhibitor compounds is described in Example 1, infra. Briefly, bacterial cells are inoculated into growth medium in individual wells of a 96-well assay plate in the presence or absence of a compound (known biofilm inhibitor or test compound). After incubation for a specified time, growth medium and non-biofilm bacterial cells are removed from each of the wells. The bacterial cells in any biofilms that are adhered to the surface of a well are fixed by addition of ethanol. The ethanol is removed, and the fixed biofilm bacteria cells are stained with crystal violet (CV). The intensity of CV staining is directly correlated with bacterial biofilm formation and is measured in the wells by reading the optical density at 600 nm (OD600). The difference in biofilm formation between untreated control and treated cultures provides an indication of relative biofilm inhibition activity (anti-biofilm activity). Use of different concentrations of an inhibitor in multiple and otherwise duplicate cultures permits determination of a compound's Minimal Biofilm Inhibitory Concentration (MBIC), which is defined herein as the lowest concentration of a compound that inhibits biofilm formation by at least 80% (i.e., ≧80%) compared to untreated control cultures. […]
(§2) A secondary assay provided a quantitative measure of both anti-biofilm activity and antibacterial activity in terms of the Minimal Biofilm Inhibitory Concentration (MBIC) and the Minimal Inhibitory Concentration (MIC), respectively. The MBIC and MIC are defined as the lowest compound concentrations that inhibit biofilm formation and bacterial growth, respectively, by at least 80% (i.e., ≧80%). The MBIC/MIC assay is formatted in a manner that is similar to the Microbroth dilution assays described by the Clinical and Laboratory Standards Institute (CLSI; formerly NCCLS) in protocol M7-A7. The growth conditions were optimized for biofilm growth in 96-well assay plates such that the resulting CV staining was within the linear range of detection. Therefore, the MBIC/MIC assay provided a stringent measure of anti-biofilm activity.
(§3) The assay was adapted for several biofilm-forming strains of S. epidermidis, S. aureus, Enterococcus faecalis, and Pseudomonas aeruginosa. Briefly, 96-well assay plates contained a two-fold dilution series for up to 8 compounds (one compound/row) and untreated controls (concentration range of 0.2 μM-100 μM). The assay plates were inoculated with the test bacterial species, e.g., S. epidermidis 18972 (0.5×TSB, 0.25% glucose) or S. aureus ATCC 35556 (0.5×TSB, 1% glucose). The inocula were prepared by diluting an overnight culture 1:100 in fresh media, which corresponds to approximately 5×10^6 cells/well. After inoculation, the assay plates were sealed with foil tape and incubated for 18 h-20 h at 37° C. The assay plates were processed, and the percent inhibition of growth (% INH-Growth) and percent inhibition of biofilm formation (% INH-Biofilm) were calculated as described above. […] Compounds with an MBIC≦10 μM and an MIC/MBIC ratio≧8 for either S. epidermidis or S. aureus were designated as validated hits.
(§4) Compounds were also tested for anti-biofilm activity against a strain of biofilm-forming, vancomycin-resistant Enterococcus faecalis strain (ATCC 51299), the Gram-negative biofilm-forming opportunistic pathogen Pseudomonas aeruginosa PAO1 ([…]), and a Gram-negative, biofilm-forming strain of Escherichia coli (ATCC 25922).

[2] = test system: Escherichia coli (ATCC 25922); type: cell-based; conditions: for MIC: Escherichia coli, ATCC25922
Experimental: as §1, §2, §3, §4

[3] = test system: vancomycin-resistant Enterococcus faecalis strain (ATCC 51299); type: cell-based; conditions: for MIC: Enterococcus faecalis, ATCC51299
Experimental: as §1, §2, §3, §4

[4] = S. aureus strain 35556, Table 5

SMILES | MBIC (S. aureus ATCC 35556; S. aureus ATCC 35556, stated in text of Examples 5 and 6) [µM] | MBIC (S. aureus ATCC 35556; [4]) [µM] | MIC (S. aureus ATCC 35556) [µM] | MBIC ([1]; P. aeruginosa strain PA01) | MIC [1] [µM] | MBIC ([2]; E. coli strain 25922) | MIC [2] [µM] | MBIC ([3]; E. faecalis strain 51299) [µM] | MIC [3] [µM] | MIC (S. aureus ATCC 35556; S. aureus strain 35556, Table 5, read-out: MIC) [µM] | MIC ([1]; P. aeruginosa strain PA01, read-out: MIC) [µM] | MIC ([2]; E. coli strain 25922, read-out: MIC) [µM] | MIC ([3]; E. faecalis strain 51299, read-out: MIC) [µM]
CCOc1cc(/C=C2\SC(=S)N(c3ccc(F)cc3)C2=O)ccc1O [Compound 4, 3-(4-fluorophenyl)-5-(3-ethoxy-4-hydroxybenzylidene)-2-thioxothiazolidin-4-one] | 3.125 | 3.1 | ≥ 100 | ≧100 μM | ≥ 100 | ≧100 μM | ≥ 100 | 12.5 | ≥ 100 |  |  |  | 
CCOc1cc(/C=C2\SC(=S)N(c3cccc(F)c3)C2=O)ccc1O [Compound 8, 3-(3-fluorophenyl)-5-(3-ethoxy-4-hydroxybenzylidene)-2-thioxothiazolidin-4-one] |  | 6.3 | ≥ 100 | ≧100 μM | ≥ 100 | ≧100 μM | ≥ 100 | 25 | ≥ 100 |  |  |  | 
C=CCOc1cc(/C=C2\SC(=S)N(c3ccc(F)cc3)C2=O)ccc1O [Compound 29, 3-(4-fluorophenyl)-5-(3-allyloxy-4-hydroxybenzylidene)-2-thioxothiazolidin-4-one] |  | 3.1 |  | ≧100 μM |  | ≧100 μM |  | 12.5 |  | ≥ 100 | ≥ 100 | ≥ 100 | ≥ 100
CCOc1cc(/C=C2\SC(=S)N(c3cccc(C#N)c3)C2=O)ccc1O [Compound 34, 3-(3-cyanophenyl)-5-(3-ethoxy-4-hydroxybenzylidene)-2-thioxothiazolidin-4-one] |  | 1.6 | ≥ 100 | ≧100 μM | ≥ 100 | ≧100 μM | ≥ 100 | 12.5 | ≥ 100 |  |  |  | 
CCOc1cc(/C=C2\SC(=S)N(c3cccnc3)C2=O)ccc1O [Compound 36, 3-(pyridin-3-yl)-5-(3-ethoxy-4-hydroxybenzylidene)-2-thioxothiazolidin-4-one] |  | 12.5 | ≥ 100 | ≧100 μM | ≥ 100 | ≧100 μM | ≥ 100 | 12.5 | ≥ 100 |  |  |  | 
CCOc1cc(/C=C2\SC(=S)N(c3ccc(F)nc3)C2=O)ccc1O [Compound 40, 3-(6-fluoropyridin-3-yl)-5-(3-ethoxy-4-hydroxybenzylidene)-2-thioxothiazolidin-4-one] |  | 6.3 | ≥ 100 | ≧100 μM | ≥ 100 | ≧100 μM | ≥ 100 | 6.3 | ≥ 100 |  |  |  | 
